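A five-concentration, 48-hour dose response in 96-well plates underlies each endpoint, interpolated linearly between surrounding concentrations. Definition used: TGI = concentration required for complete inhibition of growth.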
Tests used:
Experiment in all cases: NCI-60 cell line screen, 48 h
ACHN renal = system: ACHN renal
SR leukemia = system: SR leukemia
SF-539 CNS = system: SF-539 CNS
HS 578T breast = system: HS 578T breast
HOP-92 NSCLC = system: HOP-92 NSCLC
SK-MEL-2 melanoma = system: SK-MEL-2 melanoma
OVCAR-5 ovarian = system: OVCAR-5 ovarian
SK-MEL-28 melanoma = system: SK-MEL-28 melanoma
CCRF-CEM leukemia = system: CCRF-CEM leukemia
RXF 393 renal = system: RXF 393 renal

Row | Structure (SMILES) | TGI (ACHN renal) [µM] | TGI (SR leukemia) [µM] | TGI (SF-539 CNS) [µM] | TGI (HS 578T breast) [µM] | TGI (HOP-92 NSCLC) [µM] | TGI (SK-MEL-2 melanoma) [µM] | TGI (OVCAR-5 ovarian) [µM] | TGI (SK-MEL-28 melanoma) [µM] | TGI (CCRF-CEM leukemia) [µM] | TGI (RXF 393 renal) [µM]
1 | C=CCC(C(=O)Nc1cccc2[nH]cnc12)C(=O)OCC (centres undefined) | > 100 | > 100 | > 100 | > 100 | > 100 | > 100 | > 100 | > 100 | – | –
2 | O=[N+]([O-])c1cccc2nccc(NCCCO)c12 | 53.5 | 44.2 | 29.4 | 43.3 | – | 20.9 | 35.6 | 26.5 | 57.5 | 21.5
3 | COc1ccc(N2C(=O)C3c4[nH]c5ccccc5c4C4CCCCC4C3C2=O)cc1 (centres undefined) | > 100 | 25.2 | 32.8 | – | 50.3 | 53.5 | > 100 | 42.4 | 29.1 | 55.6
4 | C=CCn1c(-c2ccc([N+](=O)[O-])cc2)csc1=N | > 100 | – | – | > 100 | > 100 | > 100 | > 100 | > 100 | 34.7 | 54.4
5 | Cc1ccc(-n2cc([Si](C)(C)C)nn2)s1 | > 100 | – | > 100 | > 100 | > 100 | > 100 | > 100 | > 100 | – | –
6 | O=C1NCCS(=O)(=O)N2CCC[C@@H]12 | > 100 | > 100 | > 100 | – | > 100 | – | > 100 | > 100 | > 100 | > 100
7 | O=C1c2ccccc2C(=O)c2[nH]c(Cc3ccc(F)cc3)nc21 | 31.2 | 55.5 | 32 | – | 74.6 | 29 | – | 35 | > 100 | 30.2
8 | [N-]=[N+]=Nc1c([N+](=O)[O-])c(=O)n2c3c(cccc13)CCC2 | 31.8 | 5.9 | 52.2 | > 77.3 | 30 | 31.2 | 30.2 | 16.3 | 4.98 | –
9 | COc1ccc(C2=NN=C3C(c4ccccc4)=Nc4ccccc4N3C2)cc1 | > 100 | 49.5 | > 100 | – | > 100 | > 100 | > 100 | > 100 | 8.24 | 51.8
10 | CCCC(=O)[O-].N.N.N.N.N.[Co+3].[O-][Cl+3]([O-])([O-])[O-] | > 100 | – | > 100 | – | > 100 | > 100 | > 100 | > 100 | > 100 | –
11 | CC1(C)N=C(c2ccccn2)C(c2ccccn2)=NC1(C)C | > 100 | > 100 | > 100 | – | > 100 | > 100 | > 100 | – | > 100 | > 100
12 | COc1ccc(Sc2ccccc2N)cc1 | > 100 | > 100 | > 100 | – | 74.4 | > 100 | > 100 | 77.3 | 83.8 | 75.6
13 | CC(C)(C)OC(=O)NCC(=O)N1CCN(C(=O)CNC(=O)OC(C)(C)C)CC1 | > 100 | > 100 | > 100 | – | > 100 | > 100 | > 100 | > 100 | > 100 | –
14 | CCOC(=O)N1CCC(=C2c3ccc(Cl)cc3CCc3cccnc32)CC1 | 15.8 | 14.2 | – | > 100 | 24.2 | 27.4 | 37.9 | 20.3 | > 100 | 22.7
15 | Cc1ccc(N=C2C(=Nc3ccc(C)cc3)N(c3ccc(C)cc3)C(=S)N2C(=O)c2ccccc2)cc1 | > 100 | > 100 | > 100 | > 100 | > 100 | > 100 | > 100 | > 100 | – | > 100
16 | C=C(C)CNC(=S)N(N)c1ccc2ccccc2c1 | > 100 | > 100 | > 100 | > 100 | > 100 | – | 77.4 | > 100 | > 100 | > 100
17 | C=C1C(=O)OC2CC3(C)OC3CC/C(C)=C/C(OC(C)=O)C12 (centres undefined) | 23.3 | – | 16.8 | 42.9 | 4.69 | 31.5 | 23 | 16.8 | 12.7 | 16.4
18 | CCC[C@@H]1C(=O)N=C(N)N1C(=O)OCc1ccccc1 | > 100 | > 100 | – | > 100 | – | > 100 | > 100 | > 100 | – | > 100
19 | C[N+](C)(CCNC(=O)c1cccc2cc3ccccc3nc12)Cc1ccc([N+](=O)[O-])s1 | > 25 | – | – | > 25 | > 25 | > 25 | > 25 | > 25 | > 25 | > 25
20 | CCOC(=O)C(NC(=O)OC(C)(C)C)C(=O)OCC | > 100 | > 100 | – | > 100 | > 100 | > 100 | > 100 | > 100 | > 100 | > 100
21 | CN1C/C(=C\C=C\c2ccccc2)C(=O)/C(=C/C=C/c2ccccc2)C1 | > 100 | – | > 100 | – | – | > 100 | > 100 | > 100 | > 100 | > 100
22 | CC(C)(C)[Si](C)(C)OCC1OC(n2cnc3c(=O)[nH]c(N)nc32)C(O[Si](C)(C)C(C)(C)C)C1O[Si](C)(C)C(C)(C)C (centres undefined) | 12.9 | 5.48 | 5.72 | 7.65 | 7.37 | 1.01 | 5.79 | 3.89 | – | 4.69
23 | CC(=O)Nc1ccccc1NC1CC(C)N(c2ccccc2)N1C(C)=O (centres undefined) | – | > 10 | – | – | > 10 | – | – | > 10 | > 10 | > 10
24 | NC(CSSCC(N)Cc1ccccc1)Cc1ccccc1 (centres undefined) | > 100 | 91.7 | – | – | – | 88.7 | > 100 | > 100 | > 100 | –
